Patent US20250388571A1, “AMP-ACTIVATED PROTEIN KINASE MODULATOR COMPOUNDS AND USES THEREOF” (Biolexis Therapeutics, Inc., priority 2024, published 2025)
“Also recorded” adds a separate entry of the source. Where two headings read alike, the source gives them in different places.

How the values were obtained:
[1] = Plasma and tissue concentration in high fat diet mice, day 36; assay type: in vivo, mice (Mus musculus—C57BL-6); conditions: for concentration at 1 h / concentration at 3 h / concentration at 4 h: male, C57BL-6, mouse, oral
Procedure: Doses were 30 and 50 mg/kg and administered orally (p.o.) once a day (QD) for 36 days. Dose volume was 10 mL/kg, which was administered to male, 18-22-week-old mice (Mus musculus—C57BL-6) with body weight between 18-19.4 g each. Mice were grouped into 3 groups of 10. The diet for induced obesity mice were selected as a test system
Plasma lipid profile: On day 34 total cholesterol levels, triglyceride, HDL, and LDL levels were detected. Plasma insulin (fasting) and plasma NEFA (fasting) was tested on day 36. Cumulative food consumption was measured daily starting from day 1 onwards up to end of the study period. Liver, heart, jejunum, and brain tissue were collected for additional testing.

[2] = tested on: AMPK signal pathway in L6 cells; assay: Western blot assay, L6 cells
Procedure: Samples for immunoblotting studies were prepared for electrophoresis by adding in a final concentration of 1× Laemmli loading buffer (supplemented with 5% 2-mercaptoethanol). Samples were then electrophorized by SDS-PAGE (4-15% or 4-20% Criterion TGX Precast gel, Bio-Rad) at a constant voltage within the range of 140V. Proteins were transferred to a nitrocellulose membrane (Bio-Rad) using the Trans-Blot Turbo transfer system (Bio-Rad). Membranes were blocked with 5% BSA in TBST for a minimum of 1 hour at room temperature before incubating with the following primary antibodies: • Phospho-AMPKα (Thr172) (40H9) Rabbit mAb (CST, cat no: 2535S), • AMPKα Antibody (CST, cat no: 2532S) • Phospho-Raptor (Ser792) Antibody (CST, cat no: 2083S) • Raptor (24C12) Rabbit mAb (CST, cat no: 2280S) • Phospho-Acetyl-CoA Carboxylase (Ser79) Antibody (CST, cat no: 3661S) • Acetyl-CoA Carboxylase Antibody (CST, cat no: 3662S) • AMPKα2 Antibody (CST, cat no: 2757S) • AMPKβ1 antibody (CST, cat no: 12063) • AMPKβ2 Antibody (CST, CST, cat no: 4148S) • AMPKγ3 Antibody (CST, cat no: 2550S). […]
After differentiation of cells (e.g., HSKM, C2C12, L6) for 5 days, medium was changed to DHEM without FBS and glucose for starving cells for 2 hours. […] The resultant reaction mixture was then assayed and semi-quantitative histogram analysis of Western Blotting (signal value) was used to determine results.

[3] = tested on: human skeletal muscle cells (HSKM cells); assay: Glucose uptake assay, human skeletal muscle cells; assay type: cell-based
[4] = tested on: human hepatocytes-THLE-2 cells; assay: Glucose uptake assay, THLE-2 cells; assay type: cell-based
Procedure: FIGS. 13-16 show results for glucose update assays in THLE-2 cells (ATCC, cat. No. CRL-2706) when treated with compound I-11 (FIG. 13), compound I-7 (FIG. 14), MK-8722 (FIG. 15), and PF-06409577 (FIG. 16). The THLE-2 cells were starved for 3 hours in high glucose DMEM without FBS, treated with the components noted above in DMEM without FBS/glucose for 1 hour, and glucose uptake was detected using a glucose uptake kit (Promega). The bars show (from left to right) concentrations of 100 μM, 33 μM, 11 μM, 3.7 μM, 1.23 μM, 0.41 μM, 0.14 μM, 0.045 μM, 0.015 μM, 0.005 μM, 0 μM, and insulin.
Human skeletal myoblasts were obtained (Thermofisher; BYU) and cultured in DMEM/F12 medium with 10% FBS. For differentiation, 2% horse serum low glucose DMEM medium was employed for 72 hours. Human cardiomyocytes cells (HCM cells; Promocell) were cultured in myocyte growth medium (Promocell). Human preadipocyte HWP-c cells (Promocell) were obtained from upper arm of diabetic II donor. Human preadipocyte HWP-c cells (Promocell) were obtained from abdomen of diabetic II donor. For differentiating human preadipocytes, cells were cultured in preadipocyte growth medium to total confluency stage. The growth medium was replaced with preadipocyte differentiation medium for 72 hours, then changed to PromoCell adipocyte nutrition medium to complete the differentiation process. THLE-2 cells were cultured in BEGM from Lonza/Clonetics Corporation, Walkersville, MD 21793 (BEGM Bullet Kit; CC3170). HepG2, L6 and C2Cl2 cells were cultured in EMEM medium.
After differentiation myoblasts, preadipocyte cells were starved by removing the medium and adding 100 μL DMEM without serum. The medium was then replaced with 100 μL DMEM±1 μM insulin at indicated concentration of representative compounds without serum or glucose. The cells were then incubated for 1 hour at 37° C. in 5% CO2. The cells were then removed from the medium and 50 μL of 0.1 mM 2DG in PBS was added. Cells were incubated for 30 minutes at 25° C. 25 μL of Stop Buffer was added and samples were mixed. 25 μL of Neutralization Buffer was then added and mixed. 100 μL of 2DG6P Detection Reagent was then added and mixed. Samples were then incubated for 1 hour at 25° C. Luminescence was then recorded with 0.3-1 second integration on a luminometer.

Q: For `O=c1[nH]c(-c2c[nH]c3cc(F)c(-c4ccc(C5(O)CCC5)cc4)c(F)c23)no1` [Compound I-11, 3-(4,6-difluoro-5-(4-(1-hydroxycyclobutyl)phenyl)-1H-indol-3-yl)-1,2,4-oxadiazol-5(4H)-one], which “Brain (ng/mL)” value ([1]; 30 mg/kg, 1 hr) is on record?
A: BLQ

Q: And the “Brain (ng/mL)” value ([1]; 30 mg/kg, 3 hr)?
A: BLQ

Q: What about the “Skeletal muscle (ng/mL)” value ([1]; 30 mg/kg, 3 hr) of the same molecule?
A: BLQ

Q: What about the “Brain (ng/mL)” value ([1]; 50 mg/kg, 1 hr) of the same molecule?
A: BLQ

Q: What about the “Skeletal muscle (ng/mL)” value ([1]; 50 mg/kg, 1 hr) of the same molecule?
A: BLQ

Q: And the “Brain (ng/mL)” value ([1]; 50 mg/kg, 3 hr)?
A: BLQ

Q: What about the “Skeletal muscle (ng/mL)” value ([1]; 50 mg/kg, 3 hr) of the same molecule?
A: BLQ

Q: And the “Brain (ng/mL)” value ([1]; 50 mg/kg, 4 hr)?
A: BLQ

Q: What about the “Skeletal muscle (ng/mL)” value ([1]; 50 mg/kg, 4 hr) of the same molecule?
A: BLQ

Q: What about the concentration at 1 h ([1]; adipose tissue (abdominal fat), 30 mg/kg, 1 hr, read-out: Adipose tissue (abdominal fat)) of the same molecule?
A: 57 ng/mL

Q: And the concentration at 3 h ([1]; adipose tissue (abdominal fat), 30 mg/kg, 3 hr, read-out: Adipose tissue (abdominal fat))?
A: 23 ng/mL

Q: What about the concentration at 4 h ([1]; adipose tissue (abdominal fat), 30 mg/kg, 4 hr, read-out: Adipose tissue (abdominal fat)) of the same molecule?
A: 38 ng/mL

Q: What about the concentration at 1 h ([1]; adipose tissue (abdominal fat), 50 mg/kg, 1 hr, read-out: Adipose tissue (abdominal fat)) of the same molecule?
A: 2000 ng/mL

Q: What about the concentration at 3 h ([1]; adipose tissue (abdominal fat), 50 mg/kg, 3 hr, read-out: Adipose tissue (abdominal fat)) of the same molecule?
A: 1590 ng/mL

Q: What about the concentration at 4 h ([1]; adipose tissue (abdominal fat), 50 mg/kg, 4 hr, read-out: Adipose tissue (abdominal fat)) of the same molecule?
A: 1760 ng/mL

Q: And the concentration at 4 h ([1]; brain, 30 mg/kg, 4 hr, read-out: Brain)?
A: 6 ng/mL

Q: What about the concentration at 1 h ([1]; heart, 30 mg/kg, 1 hr, read-out: Heart) of the same molecule?
A: 103 ng/mL

Q: What about the concentration at 3 h ([1]; heart, 30 mg/kg, 3 hr, read-out: Heart) of the same molecule?
A: 32 ng/mL

Q: And the concentration at 4 h ([1]; heart, 30 mg/kg, 4 hr, read-out: Heart)?
A: 31 ng/mL

Q: What about the concentration at 1 h ([1]; heart, 50 mg/kg, 1 hr, read-out: Heart) of the same molecule?
A: 52 ng/mL

Q: What about the concentration at 3 h ([1]; heart, 50 mg/kg, 3 hr, read-out: Heart) of the same molecule?
A: 36 ng/mL

Q: And the concentration at 4 h ([1]; heart, 50 mg/kg, 4 hr, read-out: Heart)?
A: 102 ng/mL

Q: And the concentration at 1 h ([1]; jejunum, 30 mg/kg, 1 hr, read-out: Jejunum)?
A: 124000 ng/mL

Q: And the concentration at 3 h ([1]; jejunum, 30 mg/kg, 3 hr, read-out: Jejunum)?
A: 35 ng/mL

Q: And the concentration at 4 h ([1]; jejunum, 30 mg/kg, 4 hr, read-out: Jejunum)?
A: 27 ng/mL

Q: And the concentration at 1 h ([1]; jejunum, 50 mg/kg, 1 hr, read-out: Jejunum)?
A: 4390 ng/mL

Q: And the concentration at 3 h ([1]; jejunum, 50 mg/kg, 3 hr, read-out: Jejunum)?
A: 165 ng/mL

Q: What about the concentration at 4 h ([1]; jejunum, 50 mg/kg, 4 hr, read-out: Jejunum) of the same molecule?
A: 55 ng/mL

Q: What about the concentration at 1 h ([1]; liver, 30 mg/kg, 1 hr, read-out: Liver) of the same molecule?
A: 118 ng/mL

Q: And the concentration at 3 h ([1]; liver, 30 mg/kg, 3 hr, read-out: Liver)?
A: 74 ng/mL

Q: And the concentration at 4 h ([1]; liver, 30 mg/kg, 4 hr, read-out: Liver)?
A: 106 ng/mL

Q: What about the concentration at 1 h ([1]; liver, 50 mg/kg, 1 hr, read-out: Liver) of the same molecule?
A: 80 ng/mL

Q: What about the concentration at 3 h ([1]; liver, 50 mg/kg, 3 hr, read-out: Liver) of the same molecule?
A: 64 ng/mL

Q: And the concentration at 4 h ([1]; liver, 50 mg/kg, 4 hr, read-out: Liver)?
A: 71 ng/mL

Q: What about the concentration at 1 h ([1]; plasma, 30 mg/kg, 1 hr, read-out: Plasma) of the same molecule?
A: 627 ng/mL

Q: What about the concentration at 3 h ([1]; plasma, 30 mg/kg, 3 hr, read-out: Plasma) of the same molecule?
A: 147 ng/mL

Q: And the concentration at 4 h ([1]; plasma, 30 mg/kg, 4 hr, read-out: Plasma)?
A: 121 ng/mL

Q: And the concentration at 1 h ([1]; plasma, 50 mg/kg, 1 hr, read-out: Plasma)?
A: 501 ng/mL

Q: What about the concentration at 3 h ([1]; plasma, 50 mg/kg, 3 hr, read-out: Plasma) of the same molecule?
A: 199 ng/mL

Q: What about the concentration at 4 h ([1]; plasma, 50 mg/kg, 4 hr, read-out: Plasma) of the same molecule?
A: 112 ng/mL

Q: And the concentration at 1 h ([1]; skeletal muscle, 30 mg/kg, 1 hr, read-out: Skeletal muscle)?
A: 287 ng/mL

Q: And the concentration at 4 h ([1]; skeletal muscle, 30 mg/kg, 4 hr, read-out: Skeletal muscle)?
A: 56 ng/mL

Q: What about the pAMPK/pACC/AMPKα2γ3 expression [2] of the same molecule?
A: can also induce

Q: What about the “glucose uptake compared with reference compounds, based on RLU values” [3] of the same molecule?
A: much more glucose uptake compared with reference compounds

Q: What about the “dose dependence of glucose uptake (printed: activation of insulin / AMPK activation)” value ([3]; 100 μM to 0.005 μM, 1 hour) of the same molecule?
A: dose-dependent manner; also recorded: dose dependence

Q: What about the glucose uptake ([3]; starved, treated 1 hour) of the same molecule?
A: induced glucose uptake; also recorded: increased glucose uptake

Q: And the glucose uptake [4]?
A: induced glucose uptake; also recorded: dosage-dependent manner
